pEC50, pIC50, pKi: −log10 of the molar value.
Key:
[1] = target: T1, Lysine-specific demethylase 4B (Homo sapiens, UniProt O94953); assay: Inhibition of KDM4B (unknown origin) measured by AlphaScreen assay
T1 sequence (O94953 whole entry): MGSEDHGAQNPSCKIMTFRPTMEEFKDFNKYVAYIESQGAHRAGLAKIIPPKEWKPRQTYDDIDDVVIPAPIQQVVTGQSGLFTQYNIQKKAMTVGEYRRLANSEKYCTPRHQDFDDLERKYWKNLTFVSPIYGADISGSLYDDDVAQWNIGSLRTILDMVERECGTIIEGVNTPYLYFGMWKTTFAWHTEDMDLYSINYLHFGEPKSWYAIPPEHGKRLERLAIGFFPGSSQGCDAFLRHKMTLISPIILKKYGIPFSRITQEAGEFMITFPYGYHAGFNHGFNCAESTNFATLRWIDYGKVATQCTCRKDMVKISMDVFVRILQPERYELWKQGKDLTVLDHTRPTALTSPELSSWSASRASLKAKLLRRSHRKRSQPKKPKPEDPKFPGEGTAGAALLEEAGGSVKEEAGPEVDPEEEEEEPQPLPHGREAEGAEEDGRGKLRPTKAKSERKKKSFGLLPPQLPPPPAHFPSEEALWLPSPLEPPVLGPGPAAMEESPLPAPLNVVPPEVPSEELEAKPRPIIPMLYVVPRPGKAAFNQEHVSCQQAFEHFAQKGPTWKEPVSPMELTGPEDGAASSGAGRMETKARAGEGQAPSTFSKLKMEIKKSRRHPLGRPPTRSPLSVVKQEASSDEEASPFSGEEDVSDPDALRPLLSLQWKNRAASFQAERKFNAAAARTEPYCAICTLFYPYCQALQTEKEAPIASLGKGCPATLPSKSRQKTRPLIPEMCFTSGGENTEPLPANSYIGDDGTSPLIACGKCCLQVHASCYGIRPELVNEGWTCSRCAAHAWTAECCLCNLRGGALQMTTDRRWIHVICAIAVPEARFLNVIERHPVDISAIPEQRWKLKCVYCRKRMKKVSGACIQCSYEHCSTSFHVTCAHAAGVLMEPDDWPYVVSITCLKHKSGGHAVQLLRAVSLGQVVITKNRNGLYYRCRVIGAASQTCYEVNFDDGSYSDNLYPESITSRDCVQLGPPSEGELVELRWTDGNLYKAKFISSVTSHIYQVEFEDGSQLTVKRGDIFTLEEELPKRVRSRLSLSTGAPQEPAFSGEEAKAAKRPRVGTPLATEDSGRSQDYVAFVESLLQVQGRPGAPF

[2] = target: Lysine-specific demethylase 5A (Homo sapiens, UniProt P29375); assay: Inhibition of KDM5A (unknown origin) measured by AlphaScreen assay
[3] = target: Lysine-specific demethylase 6B (Homo sapiens, UniProt O15054); assay: Inhibition of KDM6B (unknown origin) measured by AlphaScreen assay
[4] = target: T2, Lysine-specific demethylase 4A (Homo sapiens, UniProt O75164); assay: Inhibition of recombinant HQ5-Halo-tagged KDM4A tudor domain (unknown origin) measured by fluorescence polarization assay
T2 sequence (O75164 whole entry): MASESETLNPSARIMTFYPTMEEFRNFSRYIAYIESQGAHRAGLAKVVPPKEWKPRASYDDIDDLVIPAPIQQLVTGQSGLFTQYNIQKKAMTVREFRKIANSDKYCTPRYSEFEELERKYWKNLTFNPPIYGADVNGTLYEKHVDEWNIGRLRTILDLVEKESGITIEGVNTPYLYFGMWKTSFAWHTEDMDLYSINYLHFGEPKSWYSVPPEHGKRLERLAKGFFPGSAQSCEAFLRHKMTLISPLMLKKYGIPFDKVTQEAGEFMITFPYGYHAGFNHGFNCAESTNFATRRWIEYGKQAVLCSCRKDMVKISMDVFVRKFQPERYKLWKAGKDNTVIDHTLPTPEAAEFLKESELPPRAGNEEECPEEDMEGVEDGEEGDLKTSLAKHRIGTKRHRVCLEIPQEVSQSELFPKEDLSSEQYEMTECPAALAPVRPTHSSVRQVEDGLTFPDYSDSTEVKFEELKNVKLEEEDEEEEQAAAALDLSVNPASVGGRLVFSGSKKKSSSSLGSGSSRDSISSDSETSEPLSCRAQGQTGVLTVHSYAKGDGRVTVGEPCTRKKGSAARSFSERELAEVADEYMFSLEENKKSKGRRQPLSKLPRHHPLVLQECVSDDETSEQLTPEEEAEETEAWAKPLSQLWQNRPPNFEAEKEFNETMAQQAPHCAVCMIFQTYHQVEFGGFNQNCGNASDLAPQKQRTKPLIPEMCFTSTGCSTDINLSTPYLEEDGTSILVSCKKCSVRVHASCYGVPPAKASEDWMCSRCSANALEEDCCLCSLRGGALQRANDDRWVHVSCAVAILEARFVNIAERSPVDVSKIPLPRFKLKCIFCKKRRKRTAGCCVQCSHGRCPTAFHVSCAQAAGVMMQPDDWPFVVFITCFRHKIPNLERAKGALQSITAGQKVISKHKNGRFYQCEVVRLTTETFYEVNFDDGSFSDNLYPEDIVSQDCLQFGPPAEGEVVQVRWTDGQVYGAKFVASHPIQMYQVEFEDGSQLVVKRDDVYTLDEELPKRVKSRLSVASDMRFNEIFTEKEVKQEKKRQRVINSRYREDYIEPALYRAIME

[5] = target: T3, Lysine-specific demethylase 4C (Homo sapiens, UniProt Q9H3R0); assay: Inhibition of KDM4C (unknown origin) measured by AlphaScreen assay
T3 sequence (Q9H3R0 whole entry): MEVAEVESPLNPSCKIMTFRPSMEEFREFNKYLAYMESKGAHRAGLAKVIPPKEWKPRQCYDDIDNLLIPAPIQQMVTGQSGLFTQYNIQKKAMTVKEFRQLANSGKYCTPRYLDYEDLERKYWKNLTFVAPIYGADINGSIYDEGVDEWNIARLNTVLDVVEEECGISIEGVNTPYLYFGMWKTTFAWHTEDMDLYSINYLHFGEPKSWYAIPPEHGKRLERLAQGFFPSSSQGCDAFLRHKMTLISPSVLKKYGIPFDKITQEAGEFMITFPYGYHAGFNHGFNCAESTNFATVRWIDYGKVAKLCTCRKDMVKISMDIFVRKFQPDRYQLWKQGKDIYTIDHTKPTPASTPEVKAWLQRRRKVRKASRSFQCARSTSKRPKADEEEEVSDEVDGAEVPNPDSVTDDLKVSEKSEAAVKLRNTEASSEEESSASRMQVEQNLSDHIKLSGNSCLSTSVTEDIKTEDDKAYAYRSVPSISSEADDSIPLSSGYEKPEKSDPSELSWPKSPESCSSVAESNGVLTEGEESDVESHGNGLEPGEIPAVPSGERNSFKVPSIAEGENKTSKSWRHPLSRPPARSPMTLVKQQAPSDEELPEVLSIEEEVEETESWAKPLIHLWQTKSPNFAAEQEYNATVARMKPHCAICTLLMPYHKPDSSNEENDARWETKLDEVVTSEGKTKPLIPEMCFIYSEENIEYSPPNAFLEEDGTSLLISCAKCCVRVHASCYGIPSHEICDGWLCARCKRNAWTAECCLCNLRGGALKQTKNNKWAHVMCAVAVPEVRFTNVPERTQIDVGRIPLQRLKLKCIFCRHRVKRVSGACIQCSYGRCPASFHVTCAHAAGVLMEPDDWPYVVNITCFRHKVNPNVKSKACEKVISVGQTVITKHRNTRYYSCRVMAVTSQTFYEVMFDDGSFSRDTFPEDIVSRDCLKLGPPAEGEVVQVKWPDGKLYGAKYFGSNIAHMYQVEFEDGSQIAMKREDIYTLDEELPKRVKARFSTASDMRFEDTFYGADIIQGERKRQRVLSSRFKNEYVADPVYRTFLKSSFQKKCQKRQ

KYSE-150 cell line = assay: Growth inhibition of human KYSE-150 cells measured after 48 hrs; type: functional
[6] = Inhibition of KDM4 in human MCF7 cells assessed as induction of H3K9me3 accumulation measured by immunostaining method; type: cell-based
[7] = Inhibition of KDM4 in human KYSE-150 cells assessed as induction of H3K9me3 accumulation measured by immunostaining method; type: cell-based, KYSE-150 cell line
[8] = target: T3, Lysine-specific demethylase 4C; assay: Inhibition of N-terminal GST-tagged human KDM4C (2 to 372 residues) expressed in baculovirus-infected Sf9 cells measured by high-throughput mass spectrometry assay
[9] = target: T3, Lysine-specific demethylase 4C; assay: Inhibition of KDM4C (unknown origin) using H3K9me3 as substrate and measured by LANCE TR-FRET assay
[10] = Lipophilicity, logD of compound at pH 7.4 by Chromatography; type: physicochemical; conditions: buffer
[11] = target: T4, Lysine-specific demethylase 4E (Homo sapiens, UniProt B2RXH2)
T4 sequence (B2RXH2 whole entry): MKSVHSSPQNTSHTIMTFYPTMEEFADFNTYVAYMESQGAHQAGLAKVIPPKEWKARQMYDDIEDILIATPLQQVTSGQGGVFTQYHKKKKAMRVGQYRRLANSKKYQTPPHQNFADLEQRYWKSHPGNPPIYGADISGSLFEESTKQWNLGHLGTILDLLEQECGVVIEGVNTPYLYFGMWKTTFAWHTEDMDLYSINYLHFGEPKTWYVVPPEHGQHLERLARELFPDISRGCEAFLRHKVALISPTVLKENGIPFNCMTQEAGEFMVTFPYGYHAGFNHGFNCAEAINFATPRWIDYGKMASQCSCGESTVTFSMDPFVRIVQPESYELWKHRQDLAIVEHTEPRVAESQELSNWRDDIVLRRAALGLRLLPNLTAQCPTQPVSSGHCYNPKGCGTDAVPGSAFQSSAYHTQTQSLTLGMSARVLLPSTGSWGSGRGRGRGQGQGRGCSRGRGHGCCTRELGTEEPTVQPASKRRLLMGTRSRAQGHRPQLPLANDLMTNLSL

[12] = target: T3, Lysine-specific demethylase 4C; assay: Inhibition of KDM4C (unknown origin) using H3K9me3 as substrate and measured by antibody-based assay
[13] = Antiproliferative activity against human neuroblastoma cells after 3 days by PrestoBlue assay; type: functional, cell-based; conditions: Neuroblastoma cell, 72 h
[14] = target: T1, Lysine-specific demethylase 4B; assay: Inhibition of GST-tagged KDM4B (unknown origin) using H3K9(me3)-biotin peptide as substrate incubated for 30 mins and measured after 15 mins by TR-FRET assay
[15] = target: T1, Lysine-specific demethylase 4B; assay: Inhibition of KDM4B (unknown origin) measured by ELISA assay
[16] = target: T2, Lysine-specific demethylase 4A; assay: Inhibition of human KDM4A (1 to 350 residues) measured by ELISA assay
[17] = Inhibition of KDM4 (unknown origin) measured by ESI-TOF MS assay; design: species or system Homo sapiens
[18] = target: T2, Lysine-specific demethylase 4A; assay: Inhibition of KDM4A (unknown origin) using H3K9me3 as substrate and measured by LANCE TR-FRET assay
[19] = target: T5, Lysine-specific demethylase 4D (Homo sapiens, UniProt Q6B0I6); assay: Inhibition of KDM4D (unknown origin) using H3K9me3 as substrate and measured by LANCE TR-FRET assay
T5 sequence (Q6B0I6 whole entry): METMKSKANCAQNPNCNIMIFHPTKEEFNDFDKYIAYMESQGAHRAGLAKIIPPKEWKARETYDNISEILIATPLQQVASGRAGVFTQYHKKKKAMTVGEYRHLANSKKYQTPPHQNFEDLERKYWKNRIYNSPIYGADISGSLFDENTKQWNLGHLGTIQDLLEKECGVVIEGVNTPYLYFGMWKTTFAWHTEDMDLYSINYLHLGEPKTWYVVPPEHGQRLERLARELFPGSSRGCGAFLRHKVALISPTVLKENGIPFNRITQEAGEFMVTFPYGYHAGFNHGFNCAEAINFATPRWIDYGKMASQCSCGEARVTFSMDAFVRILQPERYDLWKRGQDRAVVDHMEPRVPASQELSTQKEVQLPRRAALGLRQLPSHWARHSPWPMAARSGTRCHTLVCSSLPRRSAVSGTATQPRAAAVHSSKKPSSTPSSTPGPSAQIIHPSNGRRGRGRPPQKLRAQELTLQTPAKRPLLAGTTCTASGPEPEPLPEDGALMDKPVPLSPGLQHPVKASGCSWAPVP

[20] = target: T1, Lysine-specific demethylase 4B; assay: Inhibition of KDM4B (unknown origin) using H3K9me3 as substrate and measured by LANCE TR-FRET assay

Chain of Lysine-specific demethylase 5A (P29375 whole entry): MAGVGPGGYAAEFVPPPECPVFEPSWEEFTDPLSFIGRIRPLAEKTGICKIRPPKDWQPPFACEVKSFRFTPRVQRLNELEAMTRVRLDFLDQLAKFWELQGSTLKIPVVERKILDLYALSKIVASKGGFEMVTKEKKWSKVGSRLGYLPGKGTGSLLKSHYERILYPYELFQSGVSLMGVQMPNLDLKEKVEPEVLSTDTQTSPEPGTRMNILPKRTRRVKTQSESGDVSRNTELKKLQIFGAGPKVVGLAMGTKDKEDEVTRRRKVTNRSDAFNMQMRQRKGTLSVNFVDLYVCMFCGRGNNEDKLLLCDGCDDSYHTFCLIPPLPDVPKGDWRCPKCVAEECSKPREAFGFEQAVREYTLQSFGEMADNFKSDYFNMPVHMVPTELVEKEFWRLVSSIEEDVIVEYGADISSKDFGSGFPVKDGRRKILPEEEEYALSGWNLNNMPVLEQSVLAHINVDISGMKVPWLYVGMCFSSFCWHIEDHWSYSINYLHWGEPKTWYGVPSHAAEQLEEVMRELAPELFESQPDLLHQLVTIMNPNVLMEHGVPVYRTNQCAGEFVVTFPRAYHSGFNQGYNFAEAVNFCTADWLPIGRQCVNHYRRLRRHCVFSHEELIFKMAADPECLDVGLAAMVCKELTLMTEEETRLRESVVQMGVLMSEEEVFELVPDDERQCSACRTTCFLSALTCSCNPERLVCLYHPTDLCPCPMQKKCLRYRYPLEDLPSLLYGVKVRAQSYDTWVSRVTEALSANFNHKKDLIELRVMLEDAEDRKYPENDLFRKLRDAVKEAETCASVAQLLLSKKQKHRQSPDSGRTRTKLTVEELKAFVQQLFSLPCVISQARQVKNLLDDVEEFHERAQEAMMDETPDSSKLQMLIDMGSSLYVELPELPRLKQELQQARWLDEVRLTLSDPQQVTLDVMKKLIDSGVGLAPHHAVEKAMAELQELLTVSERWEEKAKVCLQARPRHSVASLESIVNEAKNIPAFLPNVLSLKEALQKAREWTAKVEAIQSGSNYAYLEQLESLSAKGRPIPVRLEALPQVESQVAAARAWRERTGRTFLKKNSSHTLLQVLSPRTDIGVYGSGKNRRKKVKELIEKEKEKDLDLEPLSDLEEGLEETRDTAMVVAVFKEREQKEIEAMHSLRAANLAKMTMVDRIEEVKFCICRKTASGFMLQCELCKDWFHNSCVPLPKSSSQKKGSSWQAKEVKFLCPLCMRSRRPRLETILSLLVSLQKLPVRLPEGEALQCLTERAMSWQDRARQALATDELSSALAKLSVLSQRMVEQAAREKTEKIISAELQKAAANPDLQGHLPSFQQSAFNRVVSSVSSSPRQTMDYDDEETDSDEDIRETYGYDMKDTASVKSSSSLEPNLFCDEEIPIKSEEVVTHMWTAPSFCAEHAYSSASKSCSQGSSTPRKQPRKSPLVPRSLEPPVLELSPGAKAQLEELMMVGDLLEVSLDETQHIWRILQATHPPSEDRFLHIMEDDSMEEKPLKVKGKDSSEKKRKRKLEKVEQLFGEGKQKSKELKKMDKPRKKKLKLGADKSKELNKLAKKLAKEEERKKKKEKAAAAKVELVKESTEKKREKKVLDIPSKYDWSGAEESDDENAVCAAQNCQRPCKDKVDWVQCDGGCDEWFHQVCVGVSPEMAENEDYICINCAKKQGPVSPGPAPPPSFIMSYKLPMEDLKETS
Chain of Lysine-specific demethylase 6B (O15054 whole entry, the tested form may be a part): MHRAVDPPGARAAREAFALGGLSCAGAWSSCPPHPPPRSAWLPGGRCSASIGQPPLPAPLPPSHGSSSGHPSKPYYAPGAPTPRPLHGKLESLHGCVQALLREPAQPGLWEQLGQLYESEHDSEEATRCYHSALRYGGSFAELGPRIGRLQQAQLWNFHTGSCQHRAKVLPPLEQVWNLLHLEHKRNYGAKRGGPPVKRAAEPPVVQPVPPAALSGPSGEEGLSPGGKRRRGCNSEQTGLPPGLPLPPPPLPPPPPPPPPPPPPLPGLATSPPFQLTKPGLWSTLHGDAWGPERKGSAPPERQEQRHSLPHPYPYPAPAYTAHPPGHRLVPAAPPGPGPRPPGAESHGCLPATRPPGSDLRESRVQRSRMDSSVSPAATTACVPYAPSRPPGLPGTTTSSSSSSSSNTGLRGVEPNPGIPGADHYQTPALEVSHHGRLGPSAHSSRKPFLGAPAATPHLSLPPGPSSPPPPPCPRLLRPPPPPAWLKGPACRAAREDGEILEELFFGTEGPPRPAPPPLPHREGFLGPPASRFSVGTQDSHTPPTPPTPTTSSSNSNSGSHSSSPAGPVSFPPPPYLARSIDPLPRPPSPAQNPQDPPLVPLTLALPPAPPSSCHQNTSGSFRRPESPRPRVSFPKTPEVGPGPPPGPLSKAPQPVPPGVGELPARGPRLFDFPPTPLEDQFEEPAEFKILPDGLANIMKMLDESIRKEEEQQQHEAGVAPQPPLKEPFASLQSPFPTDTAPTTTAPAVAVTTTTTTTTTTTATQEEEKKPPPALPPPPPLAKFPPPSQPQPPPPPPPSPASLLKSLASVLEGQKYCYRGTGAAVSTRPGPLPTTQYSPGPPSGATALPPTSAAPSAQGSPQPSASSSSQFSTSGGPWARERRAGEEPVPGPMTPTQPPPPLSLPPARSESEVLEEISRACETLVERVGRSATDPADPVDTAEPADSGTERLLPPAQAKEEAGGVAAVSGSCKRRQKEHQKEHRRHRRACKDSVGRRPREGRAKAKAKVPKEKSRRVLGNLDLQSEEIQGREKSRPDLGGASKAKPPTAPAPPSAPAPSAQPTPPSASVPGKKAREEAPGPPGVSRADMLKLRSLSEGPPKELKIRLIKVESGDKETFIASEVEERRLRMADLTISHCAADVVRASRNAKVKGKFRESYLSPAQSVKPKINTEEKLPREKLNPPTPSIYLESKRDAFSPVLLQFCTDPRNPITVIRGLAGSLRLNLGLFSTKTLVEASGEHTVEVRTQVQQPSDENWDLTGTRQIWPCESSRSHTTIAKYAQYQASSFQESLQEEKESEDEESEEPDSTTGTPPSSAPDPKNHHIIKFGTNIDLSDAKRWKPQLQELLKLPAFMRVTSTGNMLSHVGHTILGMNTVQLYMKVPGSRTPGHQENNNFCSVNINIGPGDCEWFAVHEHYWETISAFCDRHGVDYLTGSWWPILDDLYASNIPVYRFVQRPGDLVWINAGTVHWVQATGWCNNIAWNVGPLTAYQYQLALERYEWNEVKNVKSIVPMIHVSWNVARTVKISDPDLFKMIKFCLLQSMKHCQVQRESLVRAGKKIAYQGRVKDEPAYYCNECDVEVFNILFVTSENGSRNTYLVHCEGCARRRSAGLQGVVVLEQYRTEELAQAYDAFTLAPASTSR

## C=CCNC1=C2C[C@@H](C)C[C@H](OC)[C@H](O)[C@@H](C)/C=C(\C)[C@H](OC(N)=O)[C@@H](OC)/C=C\C=C(/C)C(=O)NC(=CC1=O)C2=O (stereo in doubt) [TANESPIMYCIN]
[1]
  pIC50: 6.15
[2]
  pIC50: 6.89
[3]
  pIC50: 6.40

## CCCCc1oc2ccccc2c1C(=O)c1cc(I)c(OCCN)c(I)c1
[4]
  pIC50: 4.59

## CO[C@H]1/C=C\C=C(/C)C(=O)NC2=CC(=O)C(NCCN(C)C)=C(C[C@@H](C)C[C@H](OC)[C@H](O)[C@@H](C)/C=C(\C)[C@@H]1OC(N)=O)C2=O (stereo in doubt) [ALVESPIMYCIN]
[1]
  pIC50: 6.15
[2]
  pIC50: 6.89
[3]
  pIC50: 6.40
[5]
  pIC50: 6.15

## COC(=O)/C=C/C(=O)N(O)CCCCNCc1ccc(COC(=O)Nc2cccc3ccccc23)cc1
KYSE-150 cell line
  GI50: 5100 nM
[6]
  pEC50: 5.20
[7]
  pEC50: 5.07

## O=C(O)c1ccnc(-c2ccc[nH]2)c1
[8]
  pKi: 7.51

## CNc1cnccc1C(=O)O
[9]
  pIC50: 5.85

## O=c1[nH]c(Oc2cnn(Cc3ccccc3)c2)nc2cnccc12
[10]
  chromatographic logD: 1.8

## CC(/C=C/C(=O)NO)=C\[C@@H](C)C(=O)c1ccc(N(C)C)cc1 [TRICHOSTATIN]
[11]
  pIC50: 4.55

## CC(C)C(=O)NC(c1ccco1)c1ccc2cccnc2c1O (stereo unspecified)
[12]
  pIC50: 4.52

## Cc1cc(C2CCCCC2)n(O)c(=O)c1 [CICLOPIROX]
[13]
  pIC50: 6.70
[14]
  pIC50: 5.42

## Clc1ccc(N/N=C(\c2ccccc2)c2ccccn2)nc1
[15]
  pIC50: 6.54
[16]
  pIC50: 6.54

## O=C(O)c1ccncc1NCc1ccco1
[10]
  chromatographic logD: 0.1

## O=C(O)/C=C/C(=O)N(O)CCCCNCc1ccc(COC(=O)Nc2cccc3ccccc23)cc1
[17]
  pIC50: 5.37

## CN(c1ccccc1)c1ccc2c(c1)CCC[C@H]2CNc1cnccc1C(=O)O
[18]
  pIC50: 7.46
[19]
  pIC50: 7.46
[20]
  pIC50: 7.46

## CCCCc1oc2ccccc2c1C(=O)c1cc(I)c(OCC[N+](C)(C)C)c(I)c1
[4]
  pIC50: 4.59

Source: ChEMBL document CHEMBL5137065, “Recent Advances with KDM4 Inhibitors and Potential Applications” (J Med Chem, 2022)
